These results are taken from ChEMBL document CHEMBL4387739, “Discovery of antichagasic inhibitors by high-throughput screening with Trypanosoma cruzi glucokinase” (Bioorg Med Chem Lett, 2019).

Data set [1] is described as follows: Inhibition of Trypanosoma cruzi glucokinase using D-glucose as substrate in presence of ATP and […] measured for every 30 secs for 10 mins by resazurin dye based G6PDH-diaphorase coupled fluorescence assay relative to control.
For data set [2], the system named is Trypanosoma cruzi. Briefly: Inhibition of Trypanosoma cruzi glucokinase at 20 uM using D-glucose as substrate after 1 hr in presence of ATP and […] by resazurin dye based G6PDH-diaphorase coupled fluorescence assay relative to control. For orientation: Resazurin is reduced to fluorescent resorufin, in cell work by metabolically active cells.
For data set [3], the species on record is Homo sapiens. Briefly: Inhibition of human glucose-6-phosphate dehydrogenase truncated mutant (29 to 511 residues) at 20 uM in presence of NADP and glucose-6-phosphate by diaphorase/resazurin coupled fluorescence assay relative to control.
For data set [4], the system named is Trypanosoma cruzi. Briefly: Antitrypanosomal activity against Trypanosoma cruzi Tulahuen […] infected in mouse NIH/3T3 cells assessed as parasite viability at 80 uM by beta-galactosidase reporter gene assay relative to control. Type of data set: functional. In general terms: Reporter assays use an easily measured gene product as a stand-in for the process of interest.

Data set [5] concerns Trypanosoma cruzi. The data set is described as follows: Antitrypanosomal activity against Trypanosoma cruzi Tulahuen […] infected in mouse NIH/3T3 cells assessed as reduction in parasite viability by beta-galactosidase reporter gene assay. The data set is classed as functional, organism-based. Conditions: NIH3T3.
Data set [6] can be described thus: Cytotoxicity against mouse NIH/3T3 cells after 72 hrs by alamar blue assay. The data set is classed as cell-based, NIH3T3. The note with it: read-out: TC50.

Where only a bound is given, the exact number is not on record here.

What is called IC50 is the concentration needed to halve the response being measured. The inhibition is the relative decrease from the control value, in per cent. For `Cc1cc2c(c(O)c1-c1c(C)cc3c(c1O)/C(=C/Nc1c(O)cc(S(=O)(=O)O)c4ccccc14)C(=O)C(O)=C3C(C)C)/C(=C/Nc1c(O)cc(S(=O)(=O)O)c3ccccc13)C(=O)C(O)=C2C(C)C`, the IC50 in data set [1] worked out at 30.2 µM. For the same compound, the inhibition came out at 57.8% in data set [2] and 9.4% in data set [3]. In addition, the Activity in data set [4] came out at 20.4%.
As for `O=C1NC(=O)C(=Cc2ccc3c(c2)OCO3)C(=O)N1`, the IC50 in data set [1] turned out to be 8.7 µM. Also, the values for the inhibition in data set [2] and in data set [3] were 67% and 5.5%, respectively. Also, the Activity in data set [4] is listed as 81.2%.
As a reminder, the EC50 is the concentration giving half of the maximal effect. With `CCOc1ccc([C@@H]2Oc3c(Cl)cc(Cl)cc3C=C2[N+](=O)[O-])cc1OCC`, the IC50 in data set [1] is 4.8 µM. In addition, the inhibition in data set [2] turned out to be 58.7%; in data set [3] it was 9.3%. In addition, in data set [5], the EC50 came to 2.9 µM. In data set [4], the Activity stood at 0%. Also, the CC50 at 72 h in data set [6] was less than 100 µM.
In the case of `COc1ccc(Br)cc1C1C(C#N)=C(N)Oc2c1c(C)nn2-c1ccccc1` (stereo not drawn), the values for the inhibition in data set [2] and in data set [3] were 72.9% and 14%, respectively. Moreover, in data set [4], the Activity amounted to 0%.
Turning to `CN1C(=O)C(=Cc2ccc(N(C)C)cc2)C(=O)N(C)C1=O`, the IC50 in data set [1] is 5.5 µM. Also, the inhibition in data set [2] was determined as 63.5%; in data set [3], 10%. Further, the Activity in data set [4] is recorded as 78.9%.
For `Cc1cc2c(c(O)c1-c1c(C)cc3c(c1O)/C(=C/Nc1cccc4c(N)cccc14)C(=O)C(O)=C3C(C)C)/C(=C/Nc1cccc3c(N)cccc13)C(=O)C(O)=C2C(C)C`, the IC50 in data set [1] was determined as 16.5 µM. Also, the inhibition in data set [2] turned out to be 66.9%; in data set [3], 9.6%. In addition, in data set [4], the Activity was 1.7%.
For `Cc1ccc(-n2nc(C)c3c2OC(N)=C(C#N)C3c2ccoc2)cc1` (stereo not drawn), the inhibition was found to be 46.3% in data set [2] and 19.9% in data set [3]. Besides, the Activity in data set [4] was found to be 80.6%.
On to `COc1ccc(C(=O)Nc2sc3c(c2C(N)=O)CCCCC3)cc1OC`, for which the inhibition amounted to 42.7% in data set [2] and 12.6% in data set [3]. Moreover, the Activity in data set [4] is on record as 50.5%.
Take `CCOc1ccc([C@@H]2Oc3ccccc3C=C2[N+](=O)[O-])cc1OCC`: the inhibition in data set [2] was 72.9%; in data set [3], 4.3%. Further, the Activity in data set [4] amounted to 0%.
`O=[N+]([O-])C1=Cc2c(ccc3ccccc23)O[C@H]1c1ccc2c(c1)OCO2`: the results for the inhibition in data set [2] and in data set [3] were 68.4% and 8.2%, respectively. The Activity in data set [4] is recorded as 0%.
Regarding `Cc1nn(-c2ccccc2)c2c1C(c1ccc(F)cc1)C(C#N)=C(N)O2` (stereo not drawn), in data set [1], the half-inhibitory concentration (IC50) worked out at 17.1 µM. In addition, the inhibition in data set [2] was found to be 55%; in data set [3] it was 2.7%. Moreover, the Activity in data set [4] was 87.1%.
As for `Cc1nn(-c2cccc(Cl)c2)c2c1C(c1cc([N+](=O)[O-])ccc1Cl)C(C#N)=C(N)O2` (stereo not drawn), the inhibition in data set [2] came to 36.8%; in data set [3], 1.7%. The Activity in data set [4] is 0%.
For `O=C1C(=Cc2ccco2)C(=O)N(c2ccccc2)C(=O)N1c1ccccc1`, the IC50 in data set [1] was 0.3 µM. Also, the results for the inhibition in data set [2] and in data set [3] were 54.8% and 6.6%, respectively. For the same compound, the Activity in data set [4] was 66.5%.
Take `OC1(C#CCN2CCCC[C@@H]2c2cccnc2)CCCCCC1`: the inhibition in data set [2] was 64%; in data set [3] it was 7.8%. The Activity in data set [4] is listed as 22.6%.
As to `COc1ccc(S(=O)(=O)Nc2cccc(Br)c2)c(Cl)c1Cl`, the IC50 in data set [1] is 5.3 µM. For the same compound, the values for the inhibition in data set [2] and in data set [3] were 42.8% and 17.5%, respectively. For the same compound, in data set [5], the concentration giving a half-maximal response (EC50) came to 15.4 µM. Besides, the Activity in data set [4] is on record as 0%. For the same compound, in data set [6], the CC50 at 72 h was 69 µM.
For the compound `Cc1cc2c(c(O)c1-c1c(C)cc3c(c1O)/C(=C/Nc1ccc(S(=O)(=O)NC(=N)N)cc1)C(=O)C(O)=C3C(C)C)/C(=C/Nc1ccc(S(=O)(=O)NC(=N)N)cc1)C(=O)C(O)=C2C(C)C`, the IC50 in data set [1] was determined as 14.4 µM. Moreover, the inhibition was determined as 69.2% in data set [2] and 5.8% in data set [3]. The concentration for a half-maximal effect (EC50) in data set [5] turned out to be 17.7 µM. Also, the Activity in data set [4] is listed as 0%. The CC50 at 72 h in data set [6] turned out to be 45.7 µM.
For the compound `COc1ccc(Br)cc1/C=C1\C(=O)NC(=O)N(CCC2=CCCCC2)C1=O`, in data set [1], the IC50 is 8 µM. Further, the figures for the inhibition in data set [2] and in data set [3] were 59.8% and 16.3%, respectively. Moreover, in data set [4], the Activity worked out at 88.7%.
Take `COc1ccc([C@@H]2Oc3ccccc3C=C2[N+](=O)[O-])cc1OC`: the IC50 in data set [1] was found to be 53.2 µM. Further, the inhibition is 41.5% in data set [2] and 8.1% in data set [3]. The Activity in data set [4] amounted to 0%.
`Nc1c(C(=O)c2cccc([N+](=O)[O-])c2)sc2nc(-c3cccnc3)ccc12`: the inhibition in data set [2] is 41.8%; in data set [3], 5.1%. In addition, the Activity in data set [4] is reported as 52.7%.
The like results for `O=C(O)C1Nc2c(I)cccc2C2C=CCC12` (stereo not drawn) were, in that order, 74.2%, 19% and 44.3%.
Turning to `O=C1NC(=O)C(=Cc2ccc(N3CCOCC3)cc2)C(=O)N1`, in data set [1], the IC50 was 0.9 µM. The inhibition turned out to be 49.4% in data set [2] and 1.6% in data set [3]. Moreover, the Activity in data set [4] came out at 88%.
For the compound `N#CCCOCCC#CCN1CCCC[C@@H]1c1cccnc1`, the inhibition in data set [2] came to 36.7%; in data set [3], 9.2%. The Activity in data set [4] was 50.5%.
`CCOc1ccc([C@@H]2Oc3ccc(Br)cc3C=C2[N+](=O)[O-])cc1OC`: the 50% inhibitory concentration (IC50) in data set [1] was 6.1 µM. Further, the inhibition in data set [2] is 43.8%; in data set [3], 8.2%. The EC50 in data set [5] was 2.1 µM. Moreover, in data set [4], the Activity was determined as 0%. Further, in data set [6], the CC50 at 72 h was 80.7 µM.
With `O=C1NC(=O)C(=Cc2ccc(Br)s2)C(=O)N1`, the IC50 in data set [1] was determined as 1.6 µM. Further, the inhibition in data set [2] was found to be 35.9%; in data set [3], 14.8%. For the same compound, in data set [4], the Activity is on record as 74.2%.
In the case of `O=C1NC(=O)C(=Cc2ccc(O)c(O)c2)C(=O)N1`, the IC50 in data set [1] was 3.1 µM. The inhibition in data set [2] came out at 79.4%; in data set [3], 2%. The Activity in data set [4] is on record as 62.8%.
